According to ChEMBL document CHEMBL1140218, “Novel bis- and tris-1,2,4-trioxanes: synthesis and antimalarial activity against multidrug-resistant Plasmodium yoelii in Swiss mice” (J Med Chem, 2008):
The source made the active and inactive calls. No cut-off for these calls is given here.

Tests used:
[1] = tested on: Plasmodium yoelii nigeriensis; experiment: Antimalarial activity as reduced parasitaemia against multidrug-resistant Plasmodium yoelii nigeriensis in Swiss mice (Mus musculus) at 96 mg/kg peroral dose for 4 days; type: functional; set-up: scale not given: the % may be the effect or the level left; details: route oral
[2] = tested on: Plasmodium yoelii nigeriensis; experiment: Antimalarial activity as cures against multidrug-resistant Plasmodium yoelii nigeriensis in Swiss mice (Mus musculus) at 96 mg/kg peroral dose for 4 days; type: functional, organism-based; set-up: dose 96 mg/kg
[3] = tested on: Plasmodium yoelii nigeriensis; experiment: Antimalarial activity as survival time against multidrug-resistant Plasmodium yoelii nigeriensis in Swiss mice (Mus musculus) at 96 mg/kg peroral dose for 4 days; type: functional; details: route oral
[4] = Solubility in groundnut oil; type: physicochemical
[5] = tested on: Plasmodium yoelii nigeriensis; experiment: Antimalarial activity as survival time against multidrug-resistant Plasmodium yoelii nigeriensis in Swiss mice (Mus musculus) at 48 mg/kg peroral dose for 4 days; type: functional; details: route oral
[6] = tested on: Plasmodium yoelii nigeriensis; experiment: Antimalarial activity as cures against multidrug-resistant Plasmodium yoelii nigeriensis infected Swiss mice (Mus musculus) at 48 mg/kg peroral dose over 4 days; type: functional, organism-based; set-up: dose 48 mg/kg
[7] = tested on: Plasmodium yoelii nigeriensis; experiment: Antimalarial activity as reduced parasitaemia against multidrug-resistant Plasmodium yoelii nigeriensis in Swiss mice (Mus musculus) at 48 mg/kg peroral dose for 4 days; type: functional; set-up: scale not given: the % may be the effect or the level left; details: route oral
[8] = tested on: Plasmodium yoelii nigeriensis; experiment: Antimalarial activity as reduced parasitaemia against multidrug-resistant Plasmodium yoelii nigeriensis in Swiss mice (Mus musculus) at 24 mg/kg peroral dose for 4 days; type: functional; set-up: scale not given: the % may be the effect or the level left; details: route oral
[9] = tested on: Plasmodium yoelii nigeriensis; experiment: Antimalarial activity as survival time against multidrug-resistant Plasmodium yoelii nigeriensis in Swiss mice (Mus musculus) at 24 mg/kg peroral dose for 4 days; type: functional; details: route oral

Structure (SMILES)	Activity [1]	Activity [2]	Survival [3]	solubility [4]	Survival [5]	Activity [6]	Activity [7]	Activity [8]	Survival [9]
C=C(c1ccc(Oc2cccc3c(Oc4ccc(C(=C)C5COC6(OO5)C5CC7CC(C5)CC6C7)cc4)cccc23)cc1)C1COC2(OO1)C1CC3CC(C1)CC2C3 (centres undefined)	12.27%	inactive	7.4 days						
C=C(c1ccc(Oc2cccc3c(Oc4ccc(C(=C)C5COC6(CCCC6)OO5)cc4)cccc23)cc1)C1COC2(CCCC2)OO1 (centres undefined)	40.05%	inactive	8.4 days						
C=C(c1ccc(Oc2cccc3c(Oc4ccc(C(=C)C5COC6(CCCCC6)OO5)cc4)cccc23)cc1)C1COC2(CCCCC2)OO1 (centres undefined)	16.36%	inactive	8.2 days						
C=C(c1ccc(Oc2cccc(C(=C)C3COC4(CCCCC4)OO3)c2)cc1)C1COC2(CCCCC2)OO1 (centres undefined)	76.79%	inactive	10 days						
C=C(c1ccc(Oc2ccc3ccc(Oc4ccc(C(=C)C5COC6(CCCCC6)OO5)cc4)cc3c2)cc1)C1COC2(CCCCC2)OO1 (centres undefined)				Insoluble					
C=C(c1ccc(Oc2ccc(C(=C)C3COC4(CCCCC4)OO3)cc2)cc1)C1COC2(CCCCC2)OO1 (centres undefined)	100%	Active	>28 days		11.8 days	inactive	100%		
C=C(c1ccc(OCC(O)COc2ccc(C(=C)C3COC4(CCCCC4)OO3)cc2)cc1)C1COC2(CCCCC2)OO1 (centres undefined)	100%	Active	>28 days		8 days	inactive	75.86%		
C=C(c1ccc(Oc2cc(Oc3ccc(C(=C)C4COC5(OO4)C4CC6CC(C4)CC5C6)cc3)cc(Oc3ccc(C(=C)C4COC5(OO4)C4CC6CC(C4)CC5C6)cc3)c2)cc1)C1COC2(OO1)C1CC3CC(C1)CC2C3 (centres undefined)	5.47%	inactive	7.4 days						
C=C(c1ccc(Oc2cccc(C(=C)C3COC4(CCCC4)OO3)c2)cc1)C1COC2(CCCC2)OO1 (centres undefined)	100%	Active	>28 days		12.2 days	inactive	100%		
C=C(c1ccc(Oc2cccc(C(=C)C3COC4(OO3)C3CC5CC(C3)CC4C5)c2)cc1)C1COC2(OO1)C1CC3CC(C1)CC2C3 (centres undefined)	7.16%	inactive	7.6 days						
C=C(c1ccc(OCC(O)COc2ccc(C(=C)C3COC4(OO3)C3CC5CC(C3)CC4C5)cc2)cc1)C1COC2(OO1)C1CC3CC(C1)CC2C3 (centres undefined)	26.76%	inactive	8.6 days						
C=C(c1ccc(Oc2ccc3ccc(Oc4ccc(C(=C)C5COC6(CCCC6)OO5)cc4)cc3c2)cc1)C1COC2(CCCC2)OO1 (centres undefined)	42.29%	inactive	7.8 days						
C=C(c1ccc(OCCCOc2ccc(C(=C)C3COC4(CCCC4)OO3)cc2)cc1)C1COC2(CCCC2)OO1 (centres undefined)	100%	Active	>28 days		12.8 days	inactive	100%		
C=C(c1ccc(Oc2ccc3ccc(Oc4ccc(C(=C)C5COC6(OO5)C5CC7CC(C5)CC6C7)cc4)cc3c2)cc1)C1COC2(OO1)C1CC3CC(C1)CC2C3 (centres undefined)	36.07%	inactive	7.4 days						
C=C(c1ccc(Oc2ccc(C(=C)C3COC4(CCCC4)OO3)cc2)cc1)C1COC2(CCCC2)OO1 (centres undefined)	100%	Active	>28 days		>28 days	Active	100%	100%	>21.2 days
C=C(c1ccc(OCCOc2ccc(C(=C)C3COC4(CCCCC4)OO3)cc2)cc1)C1COC2(CCCCC2)OO1 (centres undefined)	86.29%	inactive	10.6 days						
C=C(c1ccc(OCCCOc2ccc(C(=C)C3COC4(CCCCC4)OO3)cc2)cc1)C1COC2(CCCCC2)OO1 (centres undefined)	100%	Active	>28 days		10.8 days	inactive	87.47%		
CCO[C@@H]1C[C@@H]2CC[C@@H](C)[C@@H]3CC[C@]4(C)OO[C@@]23[C@H](O1)O4			>28 days			Active	100%	100%	
C=C(c1ccc(OCCOc2ccc(C(=C)C3COC4(OO3)C3CC5CC(C3)CC4C5)cc2)cc1)C1COC2(OO1)C1CC3CC(C1)CC2C3 (centres undefined)	66.39%	inactive	7.6 days						
C=C(c1ccc(Oc2ccc(Oc3ccc(C(=C)C4COC5(OO4)C4CC6CC(C4)CC5C6)cc3)cc2)cc1)C1COC2(OO1)C1CC3CC(C1)CC2C3 (centres undefined)	38.46%	inactive	9 days						
C=C(c1ccc(OCCCOc2ccc(C(=C)C3COC4(OO3)C3CC5CC(C3)CC4C5)cc2)cc1)C1COC2(OO1)C1CC3CC(C1)CC2C3 (centres undefined)	32.54%	inactive	7.4 days						
C=C(c1ccc(Oc2ccc(Oc3ccc(C(=C)C4COC5(CCCCC5)OO4)cc3)cc2)cc1)C1COC2(CCCCC2)OO1 (centres undefined)	47.33%	inactive	8.6 days						
C=C(c1ccc(OCCOc2ccc(C(=C)C3COC4(CCCC4)OO3)cc2)cc1)C1COC2(CCCC2)OO1 (centres undefined)	100%	Active	>28 days		12.2 days	inactive	87.76%		
C=C(c1ccc(Oc2ccc(C(=C)C3COC4(OO3)C3CC5CC(C3)CC4C5)cc2)cc1)C1COC2(OO1)C1CC3CC(C1)CC2C3 (centres undefined)	36.74%	inactive	7.2 days						
C=C(c1ccc(Oc2cc(Oc3ccc(C(=C)C4COC5(CCCCC5)OO4)cc3)cc(Oc3ccc(C(=C)C4COC5(CCCCC5)OO4)cc3)c2)cc1)C1COC2(CCCCC2)OO1 (centres undefined)	26.37%	inactive	8.4 days						
C=C(c1ccc(OCC(O)COc2ccc(C(=C)C3COC4(CCCC4)OO3)cc2)cc1)C1COC2(CCCC2)OO1 (centres undefined)	100%	Active	>28 days		9.6 days	inactive	74.32%		
C=C(c1ccc(Oc2ccc(Oc3ccc(C(=C)C4COC5(CCCC5)OO4)cc3)cc2)cc1)C1COC2(CCCC2)OO1 (centres undefined)	50.83%	inactive	7.6 days						
C=C(c1ccc(Oc2cc(Oc3ccc(C(=C)C4COC5(CCCC5)OO4)cc3)cc(Oc3ccc(C(=C)C4COC5(CCCC5)OO4)cc3)c2)cc1)C1COC2(CCCC2)OO1 (centres undefined)	3.22%	inactive	7.2 days						
